Assay results reported in US10849990B2 (priority 2018, dated 2020).

What was measured:
SPR-KO mice [1] = details: mouse, in vivo
VL neurons = assay: In vivo spike recording of spontaneous rebound firing in SPR-KO mice; details: mouse
SPR-KO mice [2] = assay: Tremor test in SPR-KO mice; details: mouse, in vivo

N[C@@H](Cc1ccc(O)c(O)c1)C(=O)O [L-DOPA]
motor problems (akinesia, gait disturbance, tremor) (SPR-KO mice [1]): ameliorated

CCC1(C)CC(=O)NC1=O (stereo not drawn) [ethosuximide]
spontaneous rebound firing of VL neurons (VL neurons): reduced spontaneous rebound firing | abnormal motor functions (tremor score) (SPR-KO mice [2]): ameliorated
